Experimental data taken from PubChem BioAssay (NCI).
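Method: 48-hour compound exposure of cells in 96-well plates, five concentrations, linear interpolation of endpoints. TGI: concentration producing complete growth inhibition.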

How the values were obtained:
Assay in all cases: NCI-60 cell line screen, 48 h
[1] = system: HCT-116 colon
[2] = system: BT-549 breast
[3] = system: CCRF-CEM leukemia
[4] = system: OVCAR-8 ovarian
[5] = system: SNB-19 CNS
[6] = system: NCI-H522 lung
[7] = system: UACC-257 melanoma
[8] = system: DU-145 prostate
[9] = system: UO-31 renal
[10] = system: MDA-N
[11] = system: SF-268 CNS
[12] = system: SK-OV-3 ovarian
[13] = system: HT29 colon
[14] = system: PC-3 prostate
[15] = system: HS 578T breast
[16] = system: HOP-62 NSCLC
[17] = system: LOX IMVI melanoma
[18] = system: K-562 leukemia
[19] = system: NCI-H23 lung
[20] = system: KM12 colon
[21] = system: SF-539 CNS
[22] = system: SW-620 colon
[23] = system: 786-0 renal
[24] = system: NCI-H460 lung
[25] = system: HCC-2998 colon
[26] = system: HL-60(TB) leukemia
[27] = system: M14 melanoma
[28] = system: MDA-MB-231 breast
[29] = system: SF-295 CNS
[30] = system: MCF7 breast
[31] = system: UACC-62 melanoma
[32] = system: NCI-H226 lung
[33] = system: SK-MEL-5 melanoma
[34] = system: MOLT-4 leukemia
[35] = system: SR leukemia
[36] = system: HCT-15 colon
[37] = system: TK-10 renal
[38] = system: T-47D breast
[39] = system: IGROV1 ovarian
[40] = system: CAKI-1 renal
[41] = system: MALME-3M melanoma
[42] = system: A498 renal
[43] = system: SK-MEL-28 melanoma
[44] = system: COLO 205 colon
[45] = system: EKVX NSCLC
[46] = system: MDA-MB-435
[47] = system: RPMI-8226 leukemia
[48] = system: SNB-75 CNS
[49] = system: SN12C renal
[50] = system: ACHN renal
[51] = system: A549 NSCLC
[52] = system: OVCAR-3 ovarian
[53] = system: OVCAR-4 ovarian
[54] = system: OVCAR-5 ovarian
[55] = system: SK-MEL-2 melanoma
[56] = system: U251 CNS
[57] = system: HOP-92 NSCLC

**Q.** For `COc1ccc(C2SC(N)=Nc3c2c(C)nn3C(=O)Cc2ccccc2)cc1` (centres undefined), which TGI [1] is on record?
**A.** > 100 µM

**Q.** And the TGI [2]?
**A.** > 100 µM

**Q.** What about the TGI [3] of the same compound?
**A.** > 100 µM

**Q.** And the TGI [4]?
**A.** > 100 µM

**Q.** What about the TGI [5] of the same compound?
**A.** > 100 µM

**Q.** And the TGI [6]?
**A.** > 100 µM

**Q.** And the TGI [7]?
**A.** > 100 µM

**Q.** What about the TGI [8] of the same compound?
**A.** > 100 µM

**Q.** What about the TGI [9] of the same compound?
**A.** > 100 µM

**Q.** And the TGI [10]?
**A.** > 100 µM

**Q.** And the TGI [11]?
**A.** > 100 µM

**Q.** What about the TGI [12] of the same compound?
**A.** > 100 µM

**Q.** What about the TGI [13] of the same compound?
**A.** > 100 µM

**Q.** What about the TGI [14] of the same compound?
**A.** > 100 µM

**Q.** What about the TGI [15] of the same compound?
**A.** > 100 µM

**Q.** What about the TGI [16] of the same compound?
**A.** > 100 µM

**Q.** What about the TGI [17] of the same compound?
**A.** > 100 µM

**Q.** And the TGI [18]?
**A.** > 100 µM

**Q.** What about the TGI [19] of the same compound?
**A.** > 100 µM

**Q.** What about the TGI [20] of the same compound?
**A.** > 100 µM

**Q.** What about the TGI [21] of the same compound?
**A.** > 100 µM

**Q.** And the TGI [22]?
**A.** > 100 µM

**Q.** What about the TGI [23] of the same compound?
**A.** > 100 µM

**Q.** And the TGI [24]?
**A.** > 100 µM

**Q.** And the TGI [25]?
**A.** > 100 µM

**Q.** What about the TGI [26] of the same compound?
**A.** > 100 µM

**Q.** What about the TGI [27] of the same compound?
**A.** > 100 µM

**Q.** What about the TGI [28] of the same compound?
**A.** > 100 µM

**Q.** And the TGI [29]?
**A.** > 100 µM

**Q.** And the TGI [30]?
**A.** > 100 µM

**Q.** What about the TGI [31] of the same compound?
**A.** > 100 µM

**Q.** And the TGI [32]?
**A.** > 100 µM

**Q.** And the TGI [33]?
**A.** > 100 µM

**Q.** And the TGI [34]?
**A.** > 100 µM

**Q.** What about the TGI [35] of the same compound?
**A.** > 100 µM

**Q.** And the TGI [36]?
**A.** > 100 µM

**Q.** And the TGI [37]?
**A.** > 100 µM

**Q.** What about the TGI [38] of the same compound?
**A.** > 100 µM

**Q.** What about the TGI [39] of the same compound?
**A.** > 100 µM

**Q.** And the TGI [40]?
**A.** > 100 µM

**Q.** And the TGI [41]?
**A.** > 100 µM

**Q.** What about the TGI [42] of the same compound?
**A.** > 100 µM

**Q.** What about the TGI [43] of the same compound?
**A.** > 100 µM

**Q.** And the TGI [44]?
**A.** > 100 µM

**Q.** What about the TGI [45] of the same compound?
**A.** > 100 µM

**Q.** And the TGI [46]?
**A.** > 100 µM

**Q.** And the TGI [47]?
**A.** > 100 µM

**Q.** And the TGI [48]?
**A.** > 100 µM

**Q.** And the TGI [49]?
**A.** > 100 µM

**Q.** What about the TGI [50] of the same compound?
**A.** > 100 µM

**Q.** What about the TGI [51] of the same compound?
**A.** > 100 µM

**Q.** What does the source list for `CCC1OC(=O)CC(O)C(C)C(OC2OC(C)C(O)C(N(C)C)C2O)C(CC=O)CC(C)C(=O)/C=C/C2(C)OC2C1C` (centres undefined)?
**A.** TGI [1]: 37.2 µM; TGI [2]: 99.6 µM; TGI [3]: 60.2 µM; TGI [52]: 73.6 µM; TGI [4]: 18.3 µM; TGI [5]: > 100 µM; TGI [6]: 33 µM; TGI [7]: 44.7 µM; TGI [8]: > 100 µM; TGI [53]: > 100 µM; TGI [10]: > 100 µM; TGI [11]: 79.8 µM; TGI [12]: > 100 µM; TGI [13]: 37 µM; TGI [54]: > 100 µM; TGI [14]: > 100 µM; TGI [15]: 76.1 µM; TGI [16]: > 100 µM; TGI [17]: 34.1 µM; TGI [18]: > 100 µM; TGI [55]: > 100 µM; TGI [19]: 91.8 µM; TGI [20]: 29.6 µM; TGI [21]: 80.5 µM; TGI [22]: 41.2 µM; TGI [23]: 72.6 µM; TGI [24]: > 100 µM; TGI [25]: 31.2 µM; TGI [26]: > 100 µM; TGI [27]: 39.2 µM; TGI [28]: 66.2 µM; TGI [29]: > 100 µM; TGI [30]: 50.7 µM; TGI [31]: 49.8 µM; TGI [32]: > 100 µM; TGI [33]: > 100 µM; TGI [34]: 41.2 µM; TGI [35]: 44.6 µM; TGI [36]: > 100 µM; TGI [37]: > 100 µM; TGI [38]: 53.7 µM; TGI [39]: 47.6 µM; TGI [56]: > 100 µM; TGI [40]: 82.1 µM; TGI [41]: 27.4 µM; TGI [42]: 94.3 µM; TGI [43]: > 100 µM; TGI [44]: 36.3 µM; TGI [45]: > 100 µM; TGI [46]: > 100 µM; TGI [47]: 34.6 µM; TGI [48]: 90 µM; TGI [49]: 30.5 µM; TGI [50]: > 100 µM; TGI [51]: > 100 µM

**Q.** What does the source list for `CCn1c2ccccc2c2cc(N=Nc3ccc(C#N)cc3)ccc21`?
**A.** TGI [1]: > 100 µM; TGI [2]: 57.1 µM; TGI [3]: > 100 µM; TGI [52]: > 100 µM; TGI [4]: > 100 µM; TGI [5]: 71.6 µM; TGI [6]: > 100 µM; TGI [7]: > 100 µM; TGI [8]: > 100 µM; TGI [53]: > 100 µM; TGI [9]: > 100 µM; TGI [10]: > 100 µM; TGI [11]: > 100 µM; TGI [12]: > 100 µM; TGI [13]: > 100 µM; TGI [54]: > 100 µM; TGI [14]: > 100 µM; TGI [15]: > 100 µM; TGI [16]: > 100 µM; TGI [17]: 61.8 µM; TGI [55]: > 100 µM; TGI [19]: 68.6 µM; TGI [20]: > 100 µM; TGI [21]: > 100 µM; TGI [22]: > 100 µM; TGI [23]: > 100 µM; TGI [24]: > 100 µM; TGI [26]: > 100 µM; TGI [27]: > 100 µM; TGI [28]: 59 µM; TGI [29]: > 100 µM; TGI [30]: > 100 µM; TGI [31]: > 100 µM; TGI [32]: > 100 µM; TGI [33]: > 100 µM; TGI [34]: > 100 µM; TGI [36]: > 100 µM; TGI [37]: > 100 µM; TGI [38]: > 100 µM; TGI [39]: > 100 µM; TGI [56]: > 100 µM; TGI [40]: > 100 µM; TGI [41]: 52.7 µM; TGI [42]: 70 µM; TGI [43]: > 100 µM; TGI [44]: > 100 µM; TGI [45]: > 100 µM; TGI [46]: > 100 µM; TGI [48]: 87.6 µM; TGI [49]: > 100 µM; TGI [57]: 79.7 µM; TGI [50]: > 100 µM; TGI [51]: > 100 µM
